Experimental data: patent US7592350B2, “Polycyclic compounds as potent alpha2-adrenoceptor antagonists” (Orion Corporation, priority 2002, dated 2009)
Read-outs that look alike come from different tables or passages of the source.

How the values were obtained:
alpha2A-adrenoceptor [1] = target: T1, alpha2A-adrenoceptor (Homo sapiens, UniProt P08913); experiment: Radioligand binding to alpha2-adrenoceptors (alpha2A); conditions: calculated Ki from radioligand binding assays; read-out: Binding affinity (Ki) alpha2A
T1 sequence (P08913 1-465): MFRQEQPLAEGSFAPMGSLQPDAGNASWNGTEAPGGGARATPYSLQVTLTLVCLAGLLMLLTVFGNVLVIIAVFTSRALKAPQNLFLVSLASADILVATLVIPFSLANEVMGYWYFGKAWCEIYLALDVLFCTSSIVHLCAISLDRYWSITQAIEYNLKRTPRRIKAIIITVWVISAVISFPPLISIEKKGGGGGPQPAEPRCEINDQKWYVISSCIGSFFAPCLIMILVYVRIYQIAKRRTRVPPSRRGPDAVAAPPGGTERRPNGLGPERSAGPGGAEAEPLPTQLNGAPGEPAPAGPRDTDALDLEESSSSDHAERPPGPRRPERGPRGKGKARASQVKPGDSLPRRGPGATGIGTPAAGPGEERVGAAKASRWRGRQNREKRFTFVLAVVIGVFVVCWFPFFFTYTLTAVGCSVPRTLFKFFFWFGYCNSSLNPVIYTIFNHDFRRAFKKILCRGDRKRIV

alpha2C-adrenoceptor [2] = target: T2, alpha2C-adrenoceptor (Homo sapiens, UniProt P18825); experiment: Radioligand binding to alpha2-adrenoceptors (alpha2C)
T2 sequence (P18825 1-462): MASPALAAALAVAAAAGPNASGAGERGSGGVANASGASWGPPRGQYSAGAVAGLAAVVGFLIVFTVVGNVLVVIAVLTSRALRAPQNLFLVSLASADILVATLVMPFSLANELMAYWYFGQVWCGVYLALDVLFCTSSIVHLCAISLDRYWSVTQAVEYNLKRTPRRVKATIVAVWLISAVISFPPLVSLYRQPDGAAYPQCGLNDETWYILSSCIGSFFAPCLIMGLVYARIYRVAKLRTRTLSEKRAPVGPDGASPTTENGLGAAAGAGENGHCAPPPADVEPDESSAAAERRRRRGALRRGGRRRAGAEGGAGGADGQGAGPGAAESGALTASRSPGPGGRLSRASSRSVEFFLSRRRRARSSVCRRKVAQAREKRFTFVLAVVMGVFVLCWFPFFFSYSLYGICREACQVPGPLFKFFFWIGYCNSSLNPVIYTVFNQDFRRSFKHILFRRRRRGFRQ

alpha2B-adrenoceptor [3] = target: T3, alpha2B-adrenoceptor (Homo sapiens, UniProt P18089); experiment: Radioligand binding to alpha2-adrenoceptors (alpha2B); conditions: calculated Ki from radioligand binding assays; read-out: Binding affinity (Ki) alpha2B
T3 sequence (P18089 1-450): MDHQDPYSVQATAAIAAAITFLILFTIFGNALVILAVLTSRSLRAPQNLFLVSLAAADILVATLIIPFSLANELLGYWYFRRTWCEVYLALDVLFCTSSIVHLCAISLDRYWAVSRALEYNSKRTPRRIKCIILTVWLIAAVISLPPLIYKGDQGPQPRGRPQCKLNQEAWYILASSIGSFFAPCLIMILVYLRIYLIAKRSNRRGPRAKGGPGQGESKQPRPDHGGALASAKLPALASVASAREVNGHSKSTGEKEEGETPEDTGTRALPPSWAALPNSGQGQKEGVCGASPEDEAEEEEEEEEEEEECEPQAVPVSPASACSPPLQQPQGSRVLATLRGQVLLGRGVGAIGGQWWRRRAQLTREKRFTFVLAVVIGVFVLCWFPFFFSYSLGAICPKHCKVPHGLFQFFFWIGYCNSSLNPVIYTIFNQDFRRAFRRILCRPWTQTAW
Source text: Examples of the alpha2-adrenoceptor binding affinities of the compounds including in the present invention are shown in the Table 1. Many of these compouinds are high-affinity ligands for all the alpha2-receptors, but some of them display selectivity for the alpha2C-subtype.

alpha2B-adrenoceptor [4] = target: T3, alpha2B-adrenoceptor; experiment: Inhibition of epinephrine-stimulated 35S-GTPγS binding, CHO cell membranes (alpha2B); assay type: biochemical; parameters: expressed in transfected cells; host or cells: CHO cells (membranes); conditions: mean, read-out: Antagonist potency (KB) alpha2B
Protocol: (§1) The functional activities of two compounds (K and L) displaying alpha2C-selectivity in binding experiments were determined as the abilities of the compounds to inhibit the epinephrine-stimulated binding of ^35S-GTPγS to G proteins (Jasper, J. R. et al., Biochem. Pharmacol. 55(7) (1998) 103544) in membranes of CHO cells stably transfected with the human alpha2-adrenoceptor subtypes.

alpha2C-adrenoceptor [5] = target: T2, alpha2C-adrenoceptor; experiment: Inhibition of epinephrine-stimulated 35S-GTPγS binding, CHO cell membranes (alpha2C); assay type: biochemical; parameters: expressed in transfected cells; host or cells: CHO cells (membranes); conditions: mean, read-out: Antagonist potency (KB) alpha2C
Protocol: as §1

rats [6] = experiment: Forced swimming test; assay type: in vivo; conditions: compared to vehicle
Protocol: Forced swimming test (FST, i.e. Porsolt's test) is generally used in the pharmacological screening of new-antidepressants. In this test, antidepressants increase the animals' activity compared to non-treated controls. […] Therefore, it was tested, whether a selective alfa2C-antagonist would have antidepressant-like activity (e.g. activity-increasing property) in the FST. […] Also the positive control substances desipramine and fluoxetine (clinically effective antidepressant agents) were active.

alpha2A-adrenoceptor [7] = target: T1, alpha2A-adrenoceptor; experiment: Inhibition of epinephrine-stimulated 35S-GTPγS binding, CHO cell membranes (alpha2A); assay type: biochemical; parameters: expressed in transfected cells; host or cells: CHO cells (membranes); conditions: mean, read-out: Antagonist potency (KB) alpha2A
Protocol: as §1

mice = experiment: Antagonism of alpha2-agonist (dexmedetomidine)-induced sedation; assay type: in vivo; conditions: dexmedetomidine 50 nmol/kg s.c., antagonist pre-treatment
Protocol: (veh=vehicle). (***p<0.001, compared to Dex+vehicle)
One of the prominent effects of non-selective alpha2-agonists in rodents is their ability to cause profound sedation. This effect, measured as locomotor inhibition by the alpha2-agonist dexmedetomidine was not modified in mice with genetically altered alpha2C-expression (Scheinin, M. et al., Life Sci 68(19-20) (2001) 2277-85). […] This assumption was tested in experiment, where dexmedetomidine was administered to mice pre-treated with the alpha2C-antagonists compound K or compound L, or the subtype non-selective antagonist atipamezole (Haapalinna, A. et al., Naunyn-Schmiedeberg's Arch. Pharmacol. 356 (1997) 570-582).

rats [8] = experiment: Prepulse inhibition of the startle reflex; assay type: in vivo
Protocol: FIGS. 4a and 4b show the effect of compounds K and L on the startle reflex and its prepulse inhibition in rats. (Veh=vehicle). Asterisks as in FIG. 1; comparisons were performed between PCP (phencyclidine)+vehicle and PCP+compounds K and L.
FIGS. 5a and 5b show the effect of the non-selective antagonist atiparnezole (ati) on the startle reflex and its prepulse inhibition in rats in the prescence of phencyclidine (PCP); (veh=vehicle). Asterisks as in FIG. 1, compared to the vehicle+PCP -group.
Prepulse-inhibition (PPI) of a startle response refers to the reduction in the startle response caused by a low intensity non-startling stimulus (the prepulse) which is presented shortly before the startle stimulus. PPI can be used as an operational measure of sensorimotor gating and appears to be present in all mammals, including rats and humans (Swerdlow, N. R. et al., The archives of general psychiatry 51 (1994) 139-154). Normally finctioning PPI can be disrupted by psychostimulants, such as d-amphetamine or phencyclidine (PCP), and reversed by clinically effective antipsychotics.
This hypothesis was tested with compounds K and L alone and against PCP disruption of the PPI. […]

[9] = calculated Ki from radioligand binding assays, read-out: Binding affinity (Ki) alpha2C

Structure (SMILES) | Ki (alpha2A-adrenoceptor [1]) [nM] | Ki (alpha2C-adrenoceptor [2]; [9]) [nM] | Ki (alpha2B-adrenoceptor [3]) [nM] | other results
C[C@@H]1CCCN2CCc3c(oc4ccccc34)[C@@H]12 (relative stereo) [Compound G, 1-Methyl-1α,3,4,6,11bβ-hexahydro-2H-11-oxa4a-aza-benzo[a]fluorene] | 96 | 22 | – | –
CC(C)(C)[C@@H]1CCN2CCc3c([nH]c4ccccc34)[C@@H]2C1 (relative stereo) [Compound Q, 2β-tert-butyl-1,2,3,4,6,7,12,12bα-octahydro-indolo[2,3-a]quinolizine] | 27 | 6.4 | 40 | –
CCC1(O)C(C)CCN2CCc3c([nH]c4ccccc34)C21 (stereo not drawn) [Compound B, 1α-Ethyl-2α-methyl-1,2,3,4,6,7,12,12bβ-octahydro-indolo[2,3-a]quinoulzin-1-ol] | 130 | 25 | 160 | –
CCC(C)C1(O)CCCN2CCc3c([nH]c4ccccc34)C21 (stereo not drawn) [Compound C, 1-s-Butyl-1,2,3,4,6,7,12,12bβ-octahydro-indolo[2,3-a]quinolizin-1-ol] | 710 | 87 | 580 | –
CC(O)C1CCCN2CCc3c([nH]c4ccccc34)C12 (stereo not drawn) [Compound P, 1-(1α2,3,4,6,7,12 12bβ-Octahydroindolo[2,3-a]quinolizin-1-yl)-ethanol] | 290 | 90 | 410 | –
CC[C@]1(CO)CCCN2CCc3c([nH]c4ccccc34)[C@@H]21 (relative stereo) [Compound L] | 85 | 18 | 20 | Kb (alpha2B-adrenoceptor [4]): 75 nM; Kb (alpha2C-adrenoceptor [5]): 4.2 nM; Activity in the forced swimming test (rats [6]; 3 micromol/kg): increased activity; Kb (alpha2A-adrenoceptor [7]): 320 nM; Antagonism of dexmedetomidine-induced sedation (locomotor inhibition) (mice): did not have clear effects
CC[C@@H]1CCCN2CCc3c([nH]c4ccccc34)[C@@H]12 (relative stereo) [Compound J, 1β-ethyl-1,2,3,4,6,7,12,12bβ-octabydroindolo[2,3-a]quinolizine] | 210 | 75 | 520 | –
c1ccc2c3c([nH]c2c1)C1CCCCCN1CC3 (stereo not drawn) [Compound E, 2,3,4,5,7,8,13,13b-Octahydro-1H-azepino[1′,2′1,2]pyrido[3,4-b]indole] | 30 | 26 | 110 | –
OC[C@H]1CCCN2CCc3c([nH]c4ccccc34)[C@H]12 (relative stereo) [Compound O, (1β,2,3,4,6,7,12,12bα-Octahydroindolo’[2,3-a]quinolizin-1-yl)-methanol] | 380 | 110 | 270 | –
COC1CCN2CCc3c([nH]c4ccccc34)C2C1 (stereo not drawn) [Compound D, 2α-Methoxy-1,2,3,4,6,7,12,12bα-octahydro-indolo[2,3-a]quinolizine] | 29 | 17 | 81 | –
OC12CCCCC1CCN1CCc3c([nH]c4ccccc34)C12 (stereo not drawn) [Compound F, 2,3,4,4aβ,5,6,7,8,13,13bβ-Decahydro-1H-6a,13-diaza-indeno[1,2-c]phenanthren-13cβ-ol] | 514 | 70 | – | –
C[C@@]1(O)CCCN2CCc3c([nH]c4ccccc34)[C@H]21 (relative stereo) [Compound H, 1α-Methyl-1,2,3,4,6,7,12,12bβ-octahydroindolo[2,3-a]quinolizin-1-ol] | 280 | 23 | 45 | –
CNCCC(Oc1ccc(C(F)(F)F)cc1)c1ccccc1 (stereo not drawn) [fluoxetine] | – | – | – | Activity in the forced swimming test (rats [6]; 10 micromol/kg): increased activity
CCC1=C(C)CC2c3[nH]c4ccccc4c3CCN2C1 (stereo not drawn) [Compound N, 3-Ethyl-2-methyl-1,4,6,7,12,12b-hexahydro-indolo[2,3-a]quinolizine] | 130 | 46 | 1110 | –
CC(C)C1(O)CCCN2CCc3c([nH]c4ccccc34)C21 (stereo not drawn) [Compound A, 1α-Isopropyl-1,2,3,4,6,7,12,12bβ-octahydroindolo[2,3-a]quinolizin-1-ol] | 480 | 61 | 330 | –
C1=CCN2CCc3c([nH]c4ccccc34)C2C1 (stereo not drawn) [Compound I, 1,4,6,7,12,12b-Hexahdroindolo[2,3-a]quinolizine] | 150 | – | 460 | Ki (alpha2C-adrenoceptor [2]): 85 nM
CCC1(c2cnc[nH]2)Cc2ccccc2C1 [atipamezole] | – | – | – | Activity in the forced swimming test (rats [6]; 10 micromol/kg): did not possess antidepressant-like effect; Effect on prepulse inhibition (PPI) disrupted by PCP (rats [8]; antagonist 20 min, PCP 10 min before measurement): did not enhance PPI; Effect on startle reflex per se (startle without prepulses) (rats [8]; in the presence of PCP): increased the startle reflex per se; Antagonism of dexmedetomidine-induced sedation (locomotor inhibition) (mice): effectively antagonised the effect of dexmedetomidine
CNCCCN1c2ccccc2CCc2ccccc21 [desipramine] | – | – | – | Activity in the forced swimming test (rats [6]; 10 micromol/kg): increased activity
CC[C@]1(CO)CCCN2CCc3c([nH]c4ccccc34)[C@H]21 (relative stereo) [Compound M, (1β-Ethyl-1,2,3,4,6,7,12,12bβ-octahydroindolo[2,3-a]quinolizin-1-yl)-methanol] | 440 | 110 | 470 | –
